Reference: patent publication US20240043439A1, “COMPOUNDS AS C5AR INHIBITORS” (Kira Pharmaceuticals (Suzhou) Ltd., priority 2020, published 2024)

What was measured:
[1] = biological target: human C5a receptor (C5aR) (Homo sapiens (Human), UniProt P21730); assay: Inhibition of C5a-C5aR binding (biotinylated human C5a, U937/C5aR cells, FACS)
Protocol: U937 cells were originally obtained from the American Type Culture Collection (ATCC) and transfected with human C5a receptor (C5aR). U937/C5aR cells were cultured at 37° C., 5% CO2 in RPMI1640 (Gibco) supplemented with 10% FBS (Gibco) and 350 µg/ml Geneticin (Gibco) and passaged every 3 days to maintain the density range from […] to 2×10^6 cells/ml.
Human C5a biotinylation was performed according to the procedure provided by manufacturer (Thermo Scientific, A39257). 10 mM solution of Sulfo-NHS-LC-Biotin was prepared by adding 180μl ultrapure H2O to the 1 mg vial immediately. 12 μl 10 mM biotin reagent was added to […] human C5a solution, gently pipetted for 3 seconds, and incubated on ice for 2 hours. Amicon ultra-0.5 centrifuge filter device (Millipore, UFC5003BK) was pre-rinsed with Milli-Q H2O, centrifuged at 14000 g for 5 min immediately before use. Up to […] sample (diluted by PBS) was added to the device and capped. The device was spinned at 14000 g for approximately 5 min. 250 μl PBS was added to the filter device, spinned at 14000 g for 5 min, and repeatedly washed 6 times. The filter device was separated from the microcentrifuge tube and placed upside down in a clean microcentrifuge tube, spinned for 2 min at 1000 g to transfer the concentrated sample from the device to the tube.
U937/C5aR cells were collected and washed twice by PBS, cells were suspended in PBS+0.1% BSA buffer at the density of 3×10^6 cells/ml. 100 μl cell suspension was added to a 96 well microplate. 50 μl compound diluted in assay buffer and 50 μl biotinylated ligand human C5a (30 nM) were added to corresponding wells in order and the plate was incubated on ice for 120 min and then centrifuged at 1000 rpm for 3-5 min at 4° C. Supernatant was removed and cells were washed by pre-cold PBS twice. 100 μl FITC conjugated streptavidin was added to cells, incubated on ice for another 30 min, and then centrifuged at 1000 rpm for 3-5 min at 4° C. Supernatant was removed and cells were washed by pre-cold PBS twice. 150 μl PBS was added to suspend the cells and signals were detected by FACS (Beckman, Cytoflex).

C5aR = C5aR (Homo sapiens (Human), UniProt P21730); assay: Calcium mobilization (U937/C5aR or HEK293/C5aR cells, FLIPR); assay type: cell-based; conditions: agonist human C5a at EC80, FLIPR
Protocol: U937/C5aR cells or HEK293/C5aR cells were washed by PBS and suspended in growth media at the density of 1×10^6 cells/ml. […] to the 384-well plate and culture for overnight. Transfer 250 nl compound solution to the cell plate using Echo, incubate for 60 min. Cells were added with Fluo-4 Direct™ dye and incubate for 50 min at 37° C. 5% CO2 and 10 m at room temperature. Place the cell plate into […] (Molecular Devices). Transfer 10 μl of 5-fold EC80 concentrations of agonist human C5a to the cell plates.

Chain of C5aR (P21730 whole entry): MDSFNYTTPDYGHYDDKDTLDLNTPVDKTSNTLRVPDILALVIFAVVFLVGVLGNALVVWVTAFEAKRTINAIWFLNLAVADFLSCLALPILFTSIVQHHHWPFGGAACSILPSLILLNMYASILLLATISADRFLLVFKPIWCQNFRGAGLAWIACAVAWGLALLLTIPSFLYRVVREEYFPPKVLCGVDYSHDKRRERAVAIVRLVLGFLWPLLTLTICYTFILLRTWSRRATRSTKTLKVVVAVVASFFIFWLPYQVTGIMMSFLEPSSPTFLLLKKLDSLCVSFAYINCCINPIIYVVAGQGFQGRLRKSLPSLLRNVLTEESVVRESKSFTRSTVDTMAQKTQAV
Chain of human C5a receptor (C5aR) (P21730 whole entry): as above

Structure (SMILES)	IC50 [1]	IC50 (C5aR)
Cc1ccc(NC(=O)[C@H]2CCCN(S(=O)(=O)c3cccnc3)[C@H]2c2ccc(NC3CCCC3)cc2)cc1C(F)(F)F [Compound 35, (2R,3S)-2-(4-(cyclopentylamino)phenyl)-N-(4-methyl-3-(trifluoromethyl)phenyl)-1-(pyridin-3-ylsulfonyl)piperidine-3-carboxamide]	2 to 5 µM	> 10 µM
Cc1cccc(F)c1C(=O)N1[C@@H]2CCC[C@@H]2C[C@H](C(=O)Nc2ccc3cnn(C)c3c2)[C@@H]1c1ccc(NC2CCCC2)cc1 [Compound 50, (2R,3S,4aR,7aR)-2-(4-(cyclopentylamino)phenyl)-1-(2-fluoro-6-methylbenzoyl)-N-(1-methyl-1H-indazol-6-yl)octahydro-1H-cyclopenta[b]pyridine-3-carboxamide]	< 0.05 µM	0.5 to 2 µM
Cc1ccc(NC(=O)[C@H]2CCCN(S(=O)(=O)Cc3ccccc3)[C@H]2c2ccc(NC3CCCC3)cc2)cc1C(F)(F)F [Compound 40, (2R,3S)-1-(benzylsulfonyl)-2-(4-(cyclopentylamino)phenyl)-N-(4-methyl-3-(trifluoromethyl)phenyl)piperidine-3-carboxamide]	< 0.05 µM	2 to 10 µM
Cc1ncc(NC(=O)[C@H]2C[C@H]3CCC[C@H]3N(C(=O)c3c(C)cccc3F)[C@H]2c2ccc(NC3CCCC3)cc2)cn1 (racemic) [Compound 58, cis-2-(4-(cyclopentylamino)phenyl)-1-(2-fluoro-6-methylbenzoyl)-N-(2-methylpyrimidin-5-yl)octahydro-1H-cyclopenta[b]pyridine-3-carboxamide]	0.05 to 0.5 µM	0.05 to 0.5 µM
Cc1cccc(F)c1C(=O)N1C(c2ccc(N(C)C3CCCC3)cc2)C(C(=O)Nc2ccc3c(c2)CCN(C)C3)C[C@@H]2CCC[C@@H]21 (relative stereo) [Compound 201, cis-2-(4-(cyclopentyl(methyl)amino)phenyl)-1-(2-fluoro-6-methylbenzoyl)-N-(2-methyl-1,2,3,4-tetrahydroisoquinolin-6-yl)octahydro-1H-cyclopenta[b]pyridine-3-carboxamide]	> 5 µM	2 to 10 µM
Cc1ccc(NC(=O)[C@H]2CCCN(S(=O)(=O)c3c(Cl)cccc3Cl)[C@H]2c2ccc(NC3CCCC3)cc2)cc1C(F)(F)F [Compound 20, (2R,3S)-2-(4-(cyclopentylamino)phenyl)-1-((2,6-dichlorophenyl)sulfonyl)-N-(4-methyl-3-(trifluoromethyl)phenyl)piperidine-3-carboxamide]	2 to 5 µM	> 10 µM
Cc1ccc(NC(=O)[C@H]2CCCN(S(=O)(=O)c3ccccc3)[C@H]2c2ccc(NC3CCCC3)cc2)cc1C(F)(F)F [Compound 34, (2R,3S)-2-(4-(cyclopentylamino)phenyl)-N-(4-methyl-3-(trifluoromethyl)phenyl)-1-(phenylsulfonyl)piperidine-3-carboxamide]	2 to 5 µM	> 10 µM
Cc1cccc(F)c1C(=O)N1C2CCCC2CC(C(=O)Nc2ccc3c(c2)CCN(C(=O)OC(C)(C)C)C3)C1c1ccc(NC2CCCC2)cc1 (stereo not drawn) [Compound 202, tert-butyl 6-cis-2-(4-(cyclopentylamino)phenyl)-1-(2-fluoro-6-methylbenzoyl)octahydro-1H-cyclopenta[b]pyridine-3-carboxamido)-3,4-dihydroisoquinoline-2(1H)-carboxylate]	> 5 µM	2 to 10 µM
Cc1ccc(NC(=O)[C@H]2CCCN(c3nccc4cccnc34)[C@H]2c2ccc(NC3CCCC3)cc2)cc1C(F)(F)F [Compound 6, (2R,3S)-2-(4-(cyclopentylamino)phenyl)-N-(4-methyl-3-(trifluoromethyl)phenyl)-1-(1,7-naphthyridin-8-yl)piperidine-3-carboxamide]	0.5 to 2 µM	2 to 10 µM
Cc1ccc(NC(=O)[C@H]2CCCN(S(=O)(=O)c3c(C)noc3C)[C@H]2c2ccc(NC3CCCC3)cc2)cc1C(F)(F)F [Compound 8, (2R,3S)-2-(4-(cyclopentylamino)phenyl)-1-((3,5-dimethylisoxazol-4-yl)sulfonyl)-N-(4-methyl-3-(trifluoromethyl)phenyl)piperidine-3-carboxamide]	2 to 5 µM	2 to 10 µM
Cc1ccc(NC(=O)C2C[C@@H]3CCC[C@@H]3N(C(=O)c3c(C)cccc3F)C2c2ccc(NC3CCCC3)cc2)cc1C(F)(F)F (relative stereo) [Compound 155, cis-2-(4-(cyclopentylamino)phenyl)-1-(2-fluoro-6-methylbenzoyl)-N-(4-methyl-3-(trifluoromethyl)phenyl)octahydro-1H-cyclopenta[b]pyridine-3-carboxamide]	0.5 to 2 µM	

More lines, now with the values ahead:

IC50 [1]	IC50 (C5aR)	Structure (SMILES)
2 to 5 µM	> 10 µM	Cc1cccc(F)c1C(=O)N1C2CCC[C@@H]2C[C@H](C(=O)Nc2ccc3ncn(C)c3c2)[C@@H]1c1ccc(NC2CCCC2)cc1 (mixture of isomers) [Compound 74, cis-2-(4-(cyclopentylamino)phenyl)-1-(2-fluoro-6-methylbenzoyl)-N-(1-methyl-1H-benzo[d]imidazol-6-yl)octahydro-1H-cyclopenta[b]pyridine-3-carboxamide]
2 to 5 µM	0.05 to 0.5 µM	Cc1cccc(F)c1C(=O)N1[C@@H]2CCC[C@@H]2C[C@H](C(=O)Nc2ccc(Cl)c(C(F)(F)F)c2)[C@@H]1c1ccc(NC2CCCC2)cc1 (racemic) [Compound 60, cis-N-(4-chloro-3-(trifluoromethyl)phenyl)-2-(4-(cyclopentylamino)phenyl)-1-(2-fluoro-6-methylbenzoyl)octahydro-1H-cyclopenta[b]pyridine-3-carboxamide]
2 to 5 µM		Cc1cccc(F)c1C(=O)N1[C@@H]2COC[C@@H]2C[C@H](C(=O)Nc2ccc3cnn(C)c3c2)[C@@H]1c1ccc(NC2CCCC2)cc1 [Compound 122, (2R,3S,4aR,7aS)-2-(4-(cyclopentylamino)phenyl)-1-(2-fluoro-6-methylbenzoyl)-N-(1-methyl-1H-indazol-6-yl)octahydrofuro[3,4-b]pyridine-3-carboxamide]
0.5 to 2 µM		Cc1cccc(F)c1C(=O)N1[C@@H]2CCC[C@@H]2C[C@H](C(=O)Nc2ccc3c(cnn3CCF)c2)[C@@H]1c1ccc(NC2CCOCC2)cc1 [Compound 109, (2R,3S,4aR,7aR)-1-(2-fluoro-6-methylbenzoyl)-N-(1-(2-fluoroethyl)-1H-indazol-5-yl)-2-(4-((tetrahydro-2H-pyran-4-yl)amino)phenyl)octahydro-1H-cyclopenta[b]pyridine-3-carboxamide]
2 to 5 µM		Cc1cccc(F)c1C(=O)N1[C@@H]2CCC[C@@H]2C[C@H](C(=O)Nc2ccc3c(cnn3CCN(C)C)c2)[C@@H]1c1ccc(NC2CCOCC2)cc1 [Compound 103, (2R,3S,4aR,7aR)-N-(1-(2-(dimethylamino)ethyl)-1H-indazol-5-yl)-1-(2-fluoro-6-methylbenzoyl)-2-(4-((tetrahydro-2H-pyran-4-yl)amino)phenyl)octahydro-1H-cyclopenta[b]pyridine-3-carboxamide]
2 to 5 µM		Cc1cccc(F)c1C(=O)N1[C@@H]2CCC[C@@H]2C[C@H](C(=O)Nc2ccc3c(cnn3C3COC3)c2)[C@@H]1c1ccc(NC2CCCC2)cc1 [Compound 83, (2R,3S,4aR,7aR)-2-(4-(cyclopentylamino)phenyl)-1-(2-fluoro-6-methylbenzoyl)-N-(1-(oxetan-3-yl)-1H-indazol-5-yl)octahydro-1H-cyclopenta[b]pyridine-3-carboxamide]
0.5 to 2 µM		Cc1ccc(NC(=O)[C@H]2CCCN(C(=O)c3c(C)cccc3F)[C@H]2C2CCC3(CCOC3)CC2)cc1C(F)(F)F (stereo partly drawn) [Compound 170, (2S,3S)-1-(2-fluoro-6-methylbenzoyl)-N-(4-methyl-3-(trifluoromethyl)phenyl)-2-(2-oxaspiro[4.5]decan-8-yl)piperidine-3-carboxamide]
2 to 5 µM		Cc1cccc(F)c1C(=O)N1[C@@H]2CCC[C@@H]2C[C@H](C(=O)Nc2ccc3c(cnn3Cc3ccccn3)c2)[C@@H]1c1ccc(NC2CCOCC2)cc1 [Compound 92, (2R,3S,4aR,7aR)-1-(2-fluoro-6-methylbenzoyl)-N-(1-(pyridin-2-ylmethyl)-1H-indazol-5-yl)-2-(4-((tetrahydro-2H-pyran-4-yl)amino)phenyl)octahydro-1H-cyclopenta[b]pyridine-3-carboxamide]
